The compounds below were run against PD-1/PD-L1 (Homo sapiens (Human), UniProt Q9NZQ7) (assay: PD-1/PD-L1 Homogeneous Time-Resolved Fluorescence (HTRF) Binding Assay). Conditions: recombinant human PD-1 (3 nM) and PD-L1 (10 nM), 25° C., PBS pH 7.4.
Outline: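 Fc-tagged human PD-1 (25-167, 3 nM) and His-tagged PD-L1 (19-238, 10 nM) preincubated with inhibitor 40 min in PBS pH 7.4, 0.05% Tween-20, 0.1% BSA, 1% DMSO, 25 °C. Binding detected by HTRF (Eu anti-IgG/APC anti-His, 665/620 nm) after 60 min; IC50 from percent control activity.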

PD-1/PD-L1, sequence (Q9NZQ7 19-238): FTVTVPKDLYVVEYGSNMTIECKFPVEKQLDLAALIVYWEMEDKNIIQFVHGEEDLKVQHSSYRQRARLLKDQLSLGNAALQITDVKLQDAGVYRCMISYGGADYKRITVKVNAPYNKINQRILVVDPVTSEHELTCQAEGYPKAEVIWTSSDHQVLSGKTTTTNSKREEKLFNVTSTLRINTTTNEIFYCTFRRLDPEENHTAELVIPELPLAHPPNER

**Q.** How did the IC50 turn out when Cc1c(Nc2nccc3cc(CN4CCC(C(=O)O)CC4)cnc23)cccc1-c1cccc(-c2nc3cc(CN4CC[C@@H](O)C4)cc(C#N)c3o2)c1C [Example 214, (R)-1-((8-(3′-(7-cyano-5-((3-hydroxypyrrolidin-1-yl)methyl)benzo[d]oxazol-2-yl)-2,2′-dimethylbiphenyl-3-ylamino)-1,7-naphthyridin-3-yl)methyl)piperidine-4-carboxylic acid] was run?
**A.** The IC50 was no more than 10 nM.

**Q.** How did the IC50 turn out when Cc1c(Nc2nccc3cc(CN4CCCC4)cnc23)cccc1-c1cccc(-c2nc3cc(CN4CC[C@@H](C(=O)O)C4)cc(C#N)c3o2)c1C [Example 134, (R)-1-((7-cyano-2-(2,2′-dimethyl-3′-(3-(pyrrolidin-1-ylmethyl)-1,7-naphthyridin-8-ylamino)biphenyl-3-yl)benzo[d]oxazol-5-yl)methyl)pyrrolidine-3-carboxylic acid] was run?
**A.** The IC50 was no more than 10 nM.

**Q.** With Cc1c(-c2nc3cc(CN4CC[C@@](C)(C(=O)O)C4)cc(C#N)c3o2)cccc1-c1cccc(Nc2nccc3cc(CN4CC[C@H](O)C4)cnc23)c1Cl [Example 34, (R)-1-((2-(2′-chloro-3′-(3-(((S)-3-hydroxypyrrolidin-1-yl)methyl)-1,7-naphthyridin-8-ylamino)-2-methylbiphenyl-3-yl)-7-cyanobenzo[d]oxazol-5-yl)methyl)-3-methylpyrrolidine-3-carboxylic acid] as the compound, how does the IC50 read?
**A.** The IC50 was no more than 10 nM.

**Q.** Which IC50 does the source give for Cc1c(-c2nc3c(o2)CCNC3)cccc1-c1cccc(-c2nc3cc(CN4CC[C@@H](C(=O)O)C4)cc(Cl)c3o2)c1C [Example 74, (R)-1-((7-chloro-2-(2,2′-dimethyl-3′-(4,5,6,7-tetrahydrooxazolo[4,5-c]pyridin-2-yl)-[1,1′-biphenyl]-3-yl)benzo[d]oxazol-5-yl)methyl)pyrrolidine-3-carboxylic acid] here?
**A.** The IC50 was no more than 10 nM.

**Q.** Which IC50 does the source give for Cc1c(Nc2nccc3cc(C4CCCN4)cnc23)cccc1-c1cccc(-c2nc3cc(CN4CC[C@@H](C(=O)O)C4)cc(C#N)c3o2)c1C (single isomer, unassigned) [Example 98] here?
**A.** The IC50 was no more than 10 nM.

**Q.** Cc1c(-c2nc3cc(CN4CC[C@@H](C(=O)O)C4)cc(C#N)c3o2)cccc1-c1cccc(-c2nc3c(s2)CN(C(=O)CN2CC[C@H](O)C2)C3)c1C [Example 112, (R)-1-((7-cyano-2-(3′-(5-(2-((S)-3-hydroxypyrrolidin-1-yl)acetyl)-5,6-dihydro-4H-pyrrolo[3,4-d]thiazol-2-yl)-2,2′-dimethylbiphenyl-3-yl)benzo[d]oxazol-5-yl)methyl)pyrrolidine-3-carboxylic acid] was tested. Which IC50 did it give?
**A.** The IC50 was no more than 10 nM.

**Q.** Which IC50 does the source give for Cc1c(-c2nc3cc(CN4CC[C@H](C(=O)O)C4)cc(C#N)c3o2)cccc1-c1cccc(-n2cc3c(n2)CCN(C)C3)c1Cl [Example 54, (S)-1-((2-(2′-chloro-2-methyl-3′-(5-methyl-4,5,6,7-tetrahydro-2H-pyrazolo[4,3-c]pyridin-2-yl)biphenyl-3-yl)-7-cyanobenzo[d]oxazol-5-yl)methyl)pyrrolidine-3-carboxylic acid] here?
**A.** Its IC50 is no more than 10 nM.

**Q.** How did the IC50 turn out when Cc1c(-c2nc3cc(CN4CC[C@@H](C(=O)O)C4)cc(Cl)c3o2)cccc1-c1cccc(-c2nc3c(s2)CN(C(C)C)CC3)c1C [Example 59, (R)-1-((7-chloro-2-(3′-(5-isopropyl-4,5,6,7-tetrahydrothiazolo[5,4-c]pyridin-2-yl)-2,2′-dimethyl-[1,1′-biphenyl]-3-yl)benzo[d]oxazol-5-yl)methyl)pyrrolidine-3-carboxylic acid] was run?
**A.** Its IC50 is no more than 10 nM.

**Q.** With Cc1c(Nc2nccc3cc(CN4CC[C@@H](O)C4)cnc23)cccc1-c1cccc(-c2nc3cc(CN4CC[C@@](C)(C(=O)O)C4)cc(C#N)c3o2)c1C [Example 100, (R)-1-((7-cyano-2-(3′-(3-(((R)-3-hydroxypyrrolidin-1-yl)methyl)-1,7-naphthyridin-8-ylamino)-2,2′-dimethylbiphenyl-3-yl)benzo[d]oxazol-5-yl)methyl)-3-methylpyrrolidine-3-carboxylic acid] as the compound, how does the IC50 read?
**A.** The IC50 was no more than 10 nM.

**Q.** Cc1c(-c2nc3cc(CN4CC5CC4CC5C(=O)O)cc(C#N)c3o2)cccc1-c1cccc(-c2nc3c(s2)CN(C(=O)CN(C)C)C3)c1C (stereo not shown) [Example 237, 2-((7-cyano-2-(3′-(5-(2-(dimethylamino)acetyl)-5,6-dihydro-4H-pyrrolo[3,4-d]thiazol-2-yl)-2,2′-dimethylbiphenyl-3-yl)benzo[d]oxazol-5-yl)methyl)-2-azabicyclo[2.2.1]heptane-5-carboxylic acid] was tested. Which IC50 did it give?
**A.** The IC50 was no more than 10 nM.

**Q.** For Cc1c(Nc2nccc3cc(CN4CC[C@@H](O)C4)cnc23)cccc1-c1cccc(-c2nc3cc(CN[C@H]4CC[C@@H](C(=O)O)C4)cc(C#N)c3o2)c1C [Example 169, (1R,3S)-3-((7-cyano-2-(3′-(3-(((R)-3-hydroxypyrrolidin-1-yl)methyl)-1,7-naphthyridin-8-ylamino)-2,2′-dimethylbiphenyl-3-yl)benzo[d]oxazol-5-yl)methylamino)cyclopentanecarboxylic acid], which IC50 is on record?
**A.** Its IC50 is no more than 10 nM.

**Q.** Cc1c(Nc2nccc3cc(CN4CC(O)C4)cnc23)cccc1-c1cccc(-c2nc3cc(CN4CC[C@@H](C(=O)O)C4)cc(C#N)c3o2)c1C [Example 136, (R)-1-((7-cyano-2-(3′-(3-((3-hydroxyazetidin-1-yl)methyl)-1,7-naphthyridin-8-ylamino)-2,2′-dimethylbiphenyl-3-yl)benzo[d]oxazol-5-yl)methyl)pyrrolidine-3-carboxylic acid] was tested. Which IC50 did it give?
**A.** Its IC50 is no more than 10 nM.

**Q.** Which IC50 does the source give for Cc1c(-c2nc3cc(CN4CCCC[C@H]4C(=O)O)c(OCC#N)cc3o2)cccc1-c1cccc(-c2nc3cc(CN4CCCC[C@H]4C(=O)O)c(OCC#N)cc3o2)c1C [Example 7, (2S,2′S)-1,1′-(((2,2′-dimethyl-[1,1′-biphenyl]-3,3′-diyl)bis(6-(cyanomethoxy)benzo[d]oxazole-2,5-diyl))bis(methylene))bis(piperidine-2-carboxylic acid)] here?
**A.** The IC50 was no more than 10 nM.

**Q.** For Cc1c(Nc2nccc3nccnc23)cccc1-c1cccc(-c2nc3cc(CN4CC[C@@H](C(=O)O)C4)cc(C#N)c3o2)c1C [Example 12, (R)-1-((7-cyano-2-(2,2′-dimethyl-3′-(pyrido[4,3-b]pyrazin-5-ylamino)biphenyl-3-yl)benzo[d]oxazol-5-yl)methyl)pyrrolidine-3-carboxylic acid], which IC50 is on record?
**A.** The IC50 was no more than 10 nM.

**Q.** How did the IC50 turn out when Cc1c(-c2nc3c(o2)CN(C(=O)CN2CC[C@@H](O)C2)C3)cccc1-c1cccc(-c2nc3cc(CN4CC[C@@H](C(=O)O)C4)cc(C#N)c3o2)c1C [Example 126, (R)-1-((7-cyano-2-(3′-(5-(2-((R)-3-hydroxypyrrolidin-1-yl)acetyl)-5,6-dihydro-4H-pyrrolo[3,4-d]oxazol-2-yl)-2,2′-dimethyl-[1,1′-biphenyl]-3-yl)benzo[d]oxazol-5-yl)methyl)pyrrolidine-3-carboxylic acid] was run?
**A.** Its IC50 is no more than 10 nM.

**Q.** How did the IC50 turn out when Cc1c(Nc2nccc3cc(CN4CC[C@@H](O)C4)cnc23)cccc1-c1cccc(-c2nc3cc(CN4CC5(CC(C(=O)O)C5)C4)cc(C#N)c3o2)c1C [Example 177, 2-((7-cyano-2-(3′-(3-(((R)-3-hydroxypyrrolidin-1-yl)methyl)-1,7-naphthyridin-8-ylamino)-2,2′-dimethylbiphenyl-3-yl)benzo[d]oxazol-5-yl)methyl)-2-azaspiro[3,3]heptane-6-carboxylic acid] was run?
**A.** The IC50 was no more than 10 nM.

**Q.** Cc1c(-c2nc3cc(CN4CC[C@@H](C(=O)O)C4)cc(C#N)c3o2)cccc1-c1cccc(Nc2cncc3nccnc23)c1Cl [Example 15, (R)-1-((2-(2′-chloro-2-methyl-3′-(pyrido[3,4-b]pyrazin-8-ylamino)biphenyl-3-yl)-7-cyanobenzo[d]oxazol-5-yl)methyl)pyrrolidine-3-carboxylic acid] was tested. Which IC50 did it give?
**A.** Its IC50 is no more than 10 nM.

**Q.** Which IC50 does the source give for Cc1c(-c2nc3cc(CN4CCC(C(=O)O)CC4)cc(C#N)c3o2)cccc1-c1cccc(NC(=O)c2nc3c(n2C)CCN(CCO)C3)c1Cl [Example 156, 1-((2-(2′-chloro-3′-(5-(2-hydroxyethyl)-1-methyl-4,5,6,7-tetrahydro-1H-imidazo[4,5-c]pyridine-2-carboxamido)-2-methylbiphenyl-3-yl)-7-cyanobenzo[d]oxazol-5-yl)methyl)piperidine-4-carboxylic acid] here?
**A.** The IC50 was no more than 10 nM.

**Q.** Which IC50 does the source give for Cc1c(-c2nc3cc(CN4CC[C@@H](O)C4)cc(C#N)c3o2)cccc1-c1cccc(NC(=O)c2nc3c(n2C)CCN(CC2CCC(C)(C(=O)O)CC2)C3)c1Cl (single isomer, unassigned; peak 2) [Example 269] here?
**A.** The IC50 was no more than 10 nM.

**Q.** How did the IC50 turn out when Cc1c(Nc2nccc3cc(CN4CC[C@@H](O)C4)cnc23)cccc1-c1cccc(-c2nc3cc(CNCCc4ccc(C(=O)O)cc4)cc(C#N)c3o2)c1C [Example 171, (R)-4-(2-((7-cyano-2-(3′-(3-((3-hydroxypyrrolidin-1-yl)methyl)-1,7-naphthyridin-8-ylamino)-2,2′-dimethylbiphenyl-3-yl)benzo[d]oxazol-5-yl)methylamino)ethyl)benzoic acid] was run?
**A.** The IC50 was no more than 10 nM.

**Q.** For Cc1c(Nc2nccc3cc(CN4CC[C@](C)(O)C4)cnc23)cccc1-c1cccc(-c2nc3cc(CN4CC[C@@](C)(C(=O)O)C4)cc(C#N)c3o2)c1C [Example 200, (R)-1-((7-cyano-2-(3′-(3-(((S)-3-hydroxy-3-methylpyrrolidin-1-yl)methyl)-1,7-naphthyridin-8-ylamino)-2,2′-dimethylbiphenyl-3-yl)benzo[d]oxazol-5-yl)methyl)-3-methylpyrrolidine-3-carboxylic acid], which IC50 is on record?
**A.** Its IC50 is no more than 10 nM.

**Q.** With Cc1c(COc2cc(OCc3cncc(C#N)c3)c(CN3CC[C@@H](O)C3)cc2Cl)cccc1-c1cccc(-c2nc3cc(CN4CC[C@@H](C(=O)O)C4)cc(Cl)c3o2)c1C [Example 148, (R)-1-((7-chloro-2-(3′-((2-chloro-5-((5-cyanopyridin-3-yl)methoxy)-4-(((R)-3-hydroxypyrrolidin-1-yl)methyl)phenoxy)methyl)-2,2′-dimethyl-[1,1′-biphenyl]-3-yl)benzo[d]oxazol-5-yl)methyl)pyrrolidine-3-carboxylic acid] as the compound, how does the IC50 read?
**A.** The IC50 was no more than 10 nM.
